Source: US11034661B2, “Substituted N′-hydroxycarbamimidoyl-1,2,5-oxadiazole compounds as indoleamine 2,3-dioxygenase IDO inhibitors” (Merck Sharp & Dohme Corp., priority 2017, dated 2021)

Key:
[1] = target: HIS-tagged IDO1 protein (Homo sapiens (Human), UniProt P14902); assay: IDO1 Enzyme Assay; type: biochemical; conditions: recombinant IDO1 40 nM, tryptophan substrate, fluorescence readout
Experimental: Biological Assays IDO1 Enzyme Assay
(§1) Compounds to be tested were serially diluted in ten 3-fold steps in DMSO starting from 10 mM DMSO stocks. Compound dilutions or DMSO alone were then dispensed from the dilution plate into a Greiner black 384-well assay plate (catalog #781086) using an Echo 555 acoustic liquid handler (Labcyte).
HIS-tagged IDO1 protein was recombinantly expressed in Escherichia coli using ZYP5052 autoinduction media supplemented with 500 μM delta aminolevulinic acid for 48 hours at 16 degrees Celsius. IDO1 protein was purified using Ni^2+-affinity resin and size exclusion chromatography. Purified protein was then diluted in assay buffer (50 mM Tris pH 7.0, 1% glycerol, 20 μM methylene blue, 0.05% Tween-20, 20 mM sodium ascorbate, 100 units/mL catalase to obtain a final IDO1 concentration of 40 nM. IDO1 solution […] or buffer alone […] was dispensed to wells of the assay plate using a BioRAPTR liquid dispenser (Beckman Coulter). Assay plates containing compound and IDO1 enzyme were incubated at room temperature for 30 minutes. Afterwards, 10 μL of 400 μM tryptophan in assay buffer were added to each well of the assay plate using a BioRAPTR liquid dispenser. Plates were incubated at room temperature for 60 minutes and reactions were quenched by addition of 10 μL of 0.5 M methyl isonipecotate in dimethyl sulfoxide. Plates were sealed and incubated at 37 degrees Celsius for 4 hours or 50 degrees Celsius for 2 hours. The plates are allowed to cool and then centrifuged for 1 minute at 1000×g. The resulting fluorescence was measured in an Envision plate reader (Perkin Elmer) with a 400/25 nm excitation filter and an 510/20 nm emission filter.
Potencies were calculated by linear least squares fit to the four parameter logistic IC50 equation.

[2] = target: IDO1 in Hela cells stimulated with IFNγ (Homo sapiens (Human), UniProt P14902); assay: IDO1 Cellular Assay in Hela Cells Stimulated with IFNγ; type: cell-based; conditions: IFNγ 100 ng/mL, about 48 hours, fluorescence readout, read-out: IDO1 HELA Cell Assay, IC50
Experimental: IDO1 Cellular Assay in Hela Cells Stimulated with IFNγ
Hela cells were cultured in complete Hela culture medium (90% EMEM, 10% heat-inactivated fetal bovine serum) and expanded to about 1×10^9 cells. The cells were then collected and frozen down at 10×10^6 cells/vial in 1 mL frozen medium (90% complete Hela culture medium, 10% DMSO)
as §1, with “stocks in Echo low volume plate(s).” for “stocks.”, “plate(s)” for “plate”, “into” for “into a”, “#781086, 50 nL/well)” for “#781086)”, “550” for “555”
Frozen Hela cells were thawed and transferred into Hela assay medium (99% complete Hela culture medium, 1% Pen/Strep) with 20 mL medium/vial of cells. The cells were spun down at 250 g in a table top centrifuge for 5 min and suspended in same volume of Hela assay medium. The cells were then counted and adjusted to a density of 2×10^5 cells/ml in Hela assay medium. Sterile L-tryptophan were added to the cells with final concentration of 300 uM L-tryptophan. A small aliquot (2 mL/plate) of Hela cells were set aside and were not treated with IFNγ, to serve as the Max-E control. The rest of Hela cells were added with sterile IFNγ (Cat #285-IF, R & D systems) with a final concentration of 100 ng/mL.
Hela cells with and without IFNγ were dispensed to the respective wells of 384-well assay plates containing the compounds. The plates were incubated for about 48 hours at a 37° C., 5% CO2 incubator. Afterwards, 12 μL of 0.5 M methyl isonipecotate in dimethyl sulfoxide were added into each well and the plates were sealed and incubated at 37° C. without CO2 overnight. The plates were centrifuged for 1 min at 200×g. The resulting fluorescence was measured in a Spectramax plate reader (Molecular Devices) with a 400 nm excitation filter and a 510 nm emission filter.
The fluorescence intensity of each well was corrected for the background observed in wells with non-IFNγ-treated cells and was expressed as a fraction of the intensity observed in wells of IFNγ-treated cells and DMSO only. Potencies were calculated by linear least squares fit to the four parameter logistic IC50 equation.

Sequence of IDO1 in Hela cells stimulated with IFNγ (P14902 whole entry): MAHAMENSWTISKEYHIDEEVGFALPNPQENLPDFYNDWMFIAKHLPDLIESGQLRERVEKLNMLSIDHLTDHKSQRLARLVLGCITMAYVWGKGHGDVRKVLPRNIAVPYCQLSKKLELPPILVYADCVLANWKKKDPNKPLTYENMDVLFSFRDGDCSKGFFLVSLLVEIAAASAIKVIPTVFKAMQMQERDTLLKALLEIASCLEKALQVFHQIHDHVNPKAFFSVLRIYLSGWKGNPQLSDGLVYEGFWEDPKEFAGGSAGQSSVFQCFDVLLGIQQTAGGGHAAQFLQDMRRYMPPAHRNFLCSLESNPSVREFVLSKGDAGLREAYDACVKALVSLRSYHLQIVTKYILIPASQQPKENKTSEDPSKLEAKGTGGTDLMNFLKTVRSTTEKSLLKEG
Sequence of HIS-tagged IDO1 protein (P14902 whole entry): as above

| Structure (SMILES) | IC50 [1] [µM] | IC50 [2] [µM] |
| --- | --- | --- |
| NS(=O)(=O)N1CC[C@@H](Oc2nonc2/C(=N/O)N[C@H]2Cc3ccc(F)cc32)C1 [Example 31, N-[(7S)-4-fluorobicyclo[4.2.0]octa-1,3,5-trien-7-yl]-N′-hydroxy-4-{[(3R)-1-sulfamoylpyrrolidin-3-yl]oxy}-1,2,5-oxadiazole-3-carboximidamide] | 0.747 | 0.75 |
| NS(=O)(=O)N1CC[C@H](Oc2nonc2/C(=N/O)N[C@H]2Cc3ccc(F)cc32)C1 [Example 32, N-[(7S)-4-fluorobicyclo[4.2.0]octa-1,3,5-trien-7-yl]-N′-hydroxy-4-{[(3S)-1-sulfamoylpyrrolidin-3-yl]oxy}-1,2,5-oxadiazole-3-carboximidamide] | 0.308 | 0.34 |
| NS(=O)(=O)CCOc1nonc1/C(=N/O)N[C@H]1Cc2ccc(F)cc21 [Example 34, N-[(7S)-4-fluorobicyclo[4.2.0]octa-1,3,5-trien-7-yl]-N′-hydroxy-4-(2-sulfamoylethoxy)-1,2,5-oxadiazole-3-carboximidamide] | 0.289 | 0.87 |
| CC(C)(COc1nonc1/C(=N/O)N[C@H]1Cc2ccc(F)cc21)NC(=O)CO [Example 35, N-{1-[(4-{N-[(7S)-4-fluorobicyclo[4.2.0]octa-1,3,5-trien-7-yl]-N′-hydroxycarbamimidoyl}-1,2,5-oxadiazol-3-yl)oxy]-2-methylpropan-2-yl}-2-hydroxyacetamide] | 2.15 | 2.03 |
| CC(=O)N[C@H]1C[C@H](Oc2nonc2/C(=N/O)N[C@H]2Cc3ccc(F)cc32)C1 [Example 37, N-{trans-3-[(4-{N-[(7S)-4-fluorobicyclo[4.2.0]octa-1,3,5-trien-7-yl]-N′-hydroxycarbamimidoyl}-1,2,5-oxadiazol-3-yl)oxy]cyclobutyl}acetamide] | 0.0834 | 0.0913 |
| CC(=O)NC(CO)COc1nonc1/C(=N/O)N[C@H]1Cc2ccc(F)cc21 (stereo partly drawn) [Example 39, N-{1-[(4-{N-[(7S)-4-fluorobicyclo[4.2.0]octa-1,3,5-trien-7-yl]-N′-hydroxycarbamimidoyl}-1,2,5-oxadiazol-3-yl)oxy]-3-hydroxypropan-2-yl}acetamide] | 0.334 | 0.446 |
| CC(=O)NC[C@H](C)Oc1nonc1/C(=N/O)N[C@H]1Cc2ccc(F)cc21 [Example 40, N-{(2S)-2-[(4-{N-[(7S)-4-fluorobicyclo[4.2.0]octa-1,3,5-trien-7-yl]-N′-hydroxycarbamimidoyl}-1,2,5-oxadiazol-3-yl)oxy]propyl}acetamide] | 2.38 | 1.03 |
| COC(=O)NCCOc1nonc1/C(=N/O)N[C@H]1Cc2ccc(F)cc21 [Example 41, methyl {2-[(4-{N-[(7S)-4-fluorobicyclo[4.2.0]octa-1,3,5-trien-7-yl]-N′-hydroxycarbamimidoyl}-1,2,5-oxadiazol-3-yl)oxy]ethyl}carbamate] | 0.141 | 0.181 |
| O=C(COc1nonc1/C(=N/O)N[C@H]1Cc2ccc(F)cc21)N1CC[C@@H](O)C1 [Example 44, N-[(7S)-4-fluorobicyclo[4.2.0]octa-1,3,5-trien-7-yl]-N′-hydroxy-4-{2-[(3R)-3-hydroxypyrrolidin-1-yl]-2-oxoethoxy}-1,2,5-oxadiazole-3-carboximidamide] | 0.866 | 1.31 |
| O=C(COc1nonc1/C(=N/O)N[C@H]1Cc2ccc(F)cc21)N1CC[C@H](O)C1 [Example 45, N-[(7S)-4-fluorobicyclo[4.2.0]octa-1,3,5-trien-7-yl]-N′-hydroxy-4-{2-[(3S)-3-hydroxypyrrolidin-1-yl]-2-oxoethoxy}-1,2,5-oxadiazole-3-carboximidamide] | 0.99 | 1.28 |
| C[C@@H](CNC(=O)CO)Oc1nonc1/C(=N/O)N[C@H]1Cc2ccc(F)cc21 [Example 46, N-{(2S)-2-[(4-{N-[(7S)-4-fluorobicyclo[4.2.0]octa-1,3,5-trien-7-yl]-N′-hydroxycarbamimidoyl}-1,2,5-oxadiazol-3-yl)oxy]propyl}-2-hydroxyacetamide] | 2.45 | 1.64 |
| NS(=O)(=O)N1CCC(Oc2nonc2/C(=N/O)N[C@H]2Cc3ccc(F)cc32)CC1 [Example 49, N-[(7S)-4-fluorobicyclo[4.2.0]octa-1,3,5-trien-7-yl]-N′-hydroxy-4-[(1-sulfamoylpiperidin-4-yl)oxy]-1,2,5-oxadiazole-3-carboximidamide] | 10.7 | 7.31 |
| O=C(CO)N1CCC(Oc2nonc2/C(=N/O)N[C@H]2Cc3ccc(F)cc32)CC1 [Example 50, N-[(7S)-4-fluorobicyclo[4.2.0]octa-1,3,5-trien-7-yl]-N′-hydroxy-4-{[1-(hydroxyacetyl)piperidin-4-yl]oxy}-1,2,5-oxadiazole-3-carboximidamide] | 0.516 | 0.822 |
| CC(=O)N[C@H](CO)COc1nonc1/C(=N/O)N[C@H]1Cc2ccc(F)cc21 [Example 51, N-{(2R)-1-[(4-{N-[(7S)-4-fluorobicyclo[4.2.0]octa-1,3,5-trien-7-yl]-N′-hydroxycarbamimidoyl}-1,2,5-oxadiazol-3-yl)oxy]-3-hydroxypropan-2-yl}acetamide] | 1.07 | 1.34 |
| CC(=O)N[C@@H](CO)COc1nonc1/C(=N/O)N[C@H]1Cc2ccc(F)cc21 [Example 52, N-{(2S)-1-[(4-{N-[(7S)-4-fluorobicyclo[4.2.0]octa-1,3,5-trien-7-yl]-N′-hydroxycarbamimidoyl}-1,2,5-oxadiazol-3-yl)oxy]-3-hydroxypropan-2-yl}acetamide] | 1.81 | 1.29 |
| CC(=O)NC[C@H](O)COc1nonc1/C(=N/O)N[C@H]1Cc2ccc(F)cc21 [Example 53, N-{(2S)-3-[(4-{N-[(7S)-4-fluorobicyclo[4.2.0]octa-1,3,5-trien-7-yl]-N′-hydroxycarbamimidoyl}-1,2,5-oxadiazol-3-yl)oxy]-2-hydroxypropyl}acetamide] | 0.215 | 0.328 |
| O=C(CO)N1CC[C@H]1COc1nonc1/C(=N/O)N[C@H]1Cc2ccc(F)cc21 [Example 54, N-[(7S)-4-fluorobicyclo[4.2.0]octa-1,3,5-trien-7-yl]-N′-hydroxy-4-{[(2S)-1-(hydroxyacetyl)azetidin-2-yl]methoxy}-1,2,5-oxadiazole-3-carboximidamide] | 1.49 | 1.34 |
| CC(=O)NC[C@@H](CO)Oc1nonc1/C(=N/O)N[C@H]1Cc2ccc(F)cc21 [Example 55, N-{(2S)-2-[(4-{N-[(7S)-4-fluorobicyclo[4.2.0]octa-1,3,5-trien-7-yl]-N′-hydroxycarbamimidoyl}-1,2,5-oxadiazol-3-yl)oxy]-3-hydroxypropyl}acetamide] | 0.215 | 0.328 |
| O=C(CO)N1CCC[C@@H]1COc1nonc1/C(=N/O)N[C@H]1Cc2ccc(F)cc21 [Example 58, N-[(7S)-4-fluorobicyclo[4.2.0]octa-1,3,5-trien-7-yl]-N′-hydroxy-4-{[(2R)-1-(hydroxyacetyl)pyrrolidin-2-yl]methoxy}-1,2,5-oxadiazole-3-carboximidamide] | 1.49 | 1.34 |
| O=C(CO)N1CC(COc2nonc2/C(=N/O)N[C@H]2Cc3ccc(F)cc32)C1 [Example 59, N-[(7S)-4-fluorobicyclo[4.2.0]octa-1,3,5-trien-7-yl]-N′-hydroxy-4-{[1-(hydroxyacetyl)azetidin-3-yl]methoxy}-1,2,5-oxadiazole-3-carboximidamide] | 0.364 | 0.298 |
